Assay results as given in US12678477B2, “Antiviral peptoid compositions” (priority 2019, dated 2026).
Where “and” joins values, the source holds several entries; their conditions need not be identical. Equal values may be shown once.

Legend:
[1] = tested on: SARS-CoV-2 Isolate USA-WA1/2020; test: SARS-CoV-2 plaque assay in Vero E6 cells (virus pre-incubated with peptoid); assay type: cell-based; conditions: for % control: plaque count relative to control; for Count (plaques): virus-peptoid incubated two hours at 37° C., Vero E6
[2] = tested on: HSV; conditions: acyclovir treatment, given orally; cited from earlier work

| Compound | % control ([1]; 5 μg/ml) | Count (plaques) ([1]; 5 μg/ml) | % control ([1]; 10 μg/ml) | Count (plaques) ([1]; 10 μg/ml) | % control ([1]; 20 μg/ml) | Count (plaques) ([1]; 20 μg/ml) | % control ([1]; 40 μg/ml) [%] | Count (plaques) ([1]; 40 μg/ml) | reduction of transmission [2] [%] |
| --- | --- | --- | --- | --- | --- | --- | --- | --- | --- |
| H-((NLys-Nspe(p-Br)-Nspe(p-Br))2—NH2 [MXB-004] | 86.36% and 102.27% | 38 and 45 | 136.36% and 134.09% | 60 and 59 | 54.55% and 56.82% | 24 and 25 | 15.91 | 7 |  |
| H-(NLys-Nspe-Nspe)4-NH2 [MXB-001] | 118.18% and 113.64% | 52 and 50 | 100% and 118.18% | 44 and 52 | 125% | 55 | 104.55 | 46 |  |
| Nc1nc2c(ncn2COCCO)c(=O)[nH]1 [acyclovir] |  |  |  |  |  |  |  |  | 50 |
